Experimental findings from patent US7217730B2, “Method for the use of pyranoindole derivatives to treat infection with Hepatitis C virus” (Wyeth, priority 2002, dated 2007) are described below.

The target in this assay is T1, NS5B from the BK strain (genotype 1b) (Hepatitis C virus genotype 1b, UniProt P26663).
T1 construct: NS5B from the BK strain (genotype 1b) is expressed in E. coli as a protein in which the 21 C-terminal amino acids are replaced; made in house; host or cells: E. coli
Kind of assay: Hepatitis C polymerase inhibition, NS5B BK strain, 33P-GTP filter assay. In kind it is biochemical. The note with it: Table 1A; for IC50: NS5B BK strain, read-out: HCV pol BK IC50; for inhibition at 20 µM: 20 μM compound, read-out: HCV pol % inh at 20 μM. The source says:
The ability of the compounds of the present invention to inhibit Hepatitis C Polymerase was established by the following experimental procedure: • NS5B from the BK strain (genotype 1b) is expressed in E. coli as a protein in which the 21 C-terminal amino acids are replaced with a short linker and a hexahistidine tag ([…]). The purified protein is mixed with radioactive nucleotides and allowed to replicate a heteropolymeric RNA substrate, primed by an endogenous short hairpin, resulting in an approximately 760 nt product. The radioactive product is captured on a filter and quantitated after removal of the unincorporated nucleotides.
Reagents: • 10 mM uridine 5′-triphosphate (UTP) (Promega # p116B) • 10 mM adenine 5′-triphosphate (ATP) (Promega # p113B) • 10 mM cytidine 5′-triphosphate (CTP) (Promega # p114B) • 10 mM guanine 5′-triphosphate (GTP) (Promega # p115B) • Bovine Serum Albumin (BSA) 10 mg/ml NEB (100× at 10 mg/ml) #007-BSA • RNasein (Promega #N251X) 40 U/μl • A-[33P]-GTP (NEN-easytides NEG/606H 3000 Ci/mmol, 370 MBq/ml, 10 mCi/ml) • Falcon polypropylene 96 well plates (Becton Dickinson # 351190) • Millipore Multiscreen assasy system-96 well-filtration plate #MADE NOB 50 • Optiphase Supermix (Wallac) formulated by Fisher • Millipore Multiscreen liner for use in microbeta 1450-106 casette [(Wallac) Perkin Elmer #1450-433] • 1 M(N-[2-hydroxyethyl]piperazine-N′-[2-ethanesulfonic acid]) (HEPES), pH 7.3 • Amersham Pharmacia Biotec (US16924-500 ml) • 1 M MgCl2 (SIGMA #M1028) • Dithiothreitol (DTT) (solid) (SIGMA #D9779) • RNase free water (GIBCO-BRL #10977-023) • Dimethyl sulfoxide (Aldrich #27685-5) • Basilen Blue (Sigma, B5520) • 0.5M ethylenediaminetetraacetic acid (EDTA), pH 8 (GIBCO-BRL #15575-020) • Dibasic sodium phosphate (7-hydrate) (Na2HPO4.7H2O; Baker#3824-07) • Phosphoric acid (Baker, #0262.02)
Further reagent preparation: • 0.5 M Na Phosphate buffer. Per liter, weigh 134 gr Na2HPO4.7H2O, add water to 900 ml. Adjust pH to 7.0 with phosphoric acid. Top off with water to 1 L. • Dilute nucleotides 1:1000 to 10 μM (GTP and CTP) or 1:100 to 100 μM (ATP and UTP) into RNase free water.
Procedure: • (1) Compounds 10 μl at 10 μg/ml in 15% dimethylsulfoxide (DMSO)
When starting from 100 μg/ml compound stock in […]: • Dispense 5 μl 30% DMSO per well • Dispense 5 μl compound (100 μg/ml) per well.
When starting from 50 μg/ml compound stock in 15% DMSO: • Add 10 μl compound per well. • (2) Enzyme Mix:
Add 20 μl enzyme mix into each well of the assay plate. Incubate compound and enzyme at room temperature for 15 minutes • (3) Template mix—prepare ahead
Spin down a tube of RNA (5 μg/tube stored in 75% ethanol and 0.3 M sodium acetate) in a microcentrifuge for 20 minutes at 4° C. One tube is enough for 1–1.5 plates. Remove as much ethanol from the tube as possible by inverting the tube. Be gentle, pellet RNA may not adhere to the tube. Vacuum dry the RNA. Resuspend the RNA by adding 1 ml of DEPC water, close the cap of the tube tightly. To dissolve RNA, incubate RNA solution on ice for ˜60 minutes and gently vortex. Spin briefly to ensure all RNA solution is down to the bottom of the tube before opening cap. Gently transfer RNA solution into a 5 ml or larger tube. Add another 3 ml of DEPC water (total 4 ml of volume).
Add the following volumes of reagents
Add 20 μl template mix per reaction (i.e. 20 ng of pOF per reaction or ˜3 nM) • (4) Incubate reaction at room temperature (22–25° C.) for 2 hours. • (5) Stop reaction by adding 50 μl of 170 mM EDTA. • Final concentration of EDTA is 85 mM. • (6) Prewet filters of Millipore multiscreen assay plate by adding 200 μl of 0.5 M sodium phosphate buffer, pH 7.0 into each well. Let stand at room temperature for 2–3 minutes. • (7) Place the multiscreen filter plate onto a Millipore Manifold and turn on vacuum to allow buffer to flow through. Turn off vacuum. Transfer 80 μl of the reaction product into each well of the filter plate. Let stand for 2–3 minutes. […]

T1 sequence (P26663 2420-2989): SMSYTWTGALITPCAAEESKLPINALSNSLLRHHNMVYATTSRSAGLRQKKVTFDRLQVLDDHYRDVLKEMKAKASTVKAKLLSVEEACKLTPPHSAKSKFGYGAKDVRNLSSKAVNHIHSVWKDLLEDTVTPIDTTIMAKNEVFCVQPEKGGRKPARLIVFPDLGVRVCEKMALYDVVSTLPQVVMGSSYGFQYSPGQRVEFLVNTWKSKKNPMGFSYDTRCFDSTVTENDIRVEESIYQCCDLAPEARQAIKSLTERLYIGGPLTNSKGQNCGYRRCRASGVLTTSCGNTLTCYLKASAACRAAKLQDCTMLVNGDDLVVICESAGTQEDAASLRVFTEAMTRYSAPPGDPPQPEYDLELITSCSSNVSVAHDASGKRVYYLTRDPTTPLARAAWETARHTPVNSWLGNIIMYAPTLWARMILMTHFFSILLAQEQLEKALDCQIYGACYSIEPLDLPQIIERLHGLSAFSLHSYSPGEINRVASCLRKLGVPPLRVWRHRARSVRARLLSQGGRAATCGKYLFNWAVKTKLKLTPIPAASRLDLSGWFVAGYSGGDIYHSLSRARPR

For the molecule `CCCC1(CC(=O)O)OCCc2c1[nH]c1c(C)ccc(C#N)c21` (centres unmarked) [Example 1, (5-cyano-8-methyl-1-propyl-1,3,4,9-tetrahydro-pyrano[3,4-b]indol-1-yl)acetic acid], the IC50 turned out to be 0.5 µM.
Same read-out and setting: then `CCC[C@@]1(CC(=O)O)OCCc2c1[nH]c1c(C)ccc(C#N)c21` [Example 3, [(S)-5-cyano-8-methyl-1-propyl-1,3,4,9-tetrahydropyrano[3,4-b]indol-1-yl]acetic acid], with 2.4 µM; and `CCCC1(CC(=O)O)OCCc2c1[nH]c1c(F)ccc(C#N)c21` (centres unmarked) [Example 4, (5-cyano-8-fluoro-1-propyl-1,3,4,9-tetrahydro-pyrano[3,4-b]indol-1-yl)acetic acid], with 1 µM; and `CCC[C@@]1(CC(=O)O)OCCc2c1[nH]c1c(F)ccc(C#N)c21` [Example 6, [(S)-5-cyano-8-fluoro-1-propyl-1,3,4,9-tetrahydropyrano[3,4-b]indol-1-yl]acetic acid], with 5.7 µM.
Same read-out and setting: then `CCCC1(CC(=O)O)OCCc2c1[nH]c1c(Cl)ccc(Cl)c21` (centres unmarked) [Example 7, (5,8-dichloro-1-propyl-1,3,4,9-tetrahydro-pyrano[3,4-b]indol-1-yl)acetic acid], with 0.2 µM; and `CCC[C@@]1(CC(=O)O)OCCc2c1[nH]c1c(Cl)ccc(Cl)c21` [Example 9, [(S)-5,8-dichloro-1-propyl-1,3,4,9-tetrahydropyrano[3,4-b]indol-1-yl]acetic acid], with 1.1 µM; and `CCCC1(CC(=O)O)OCCc2c1[nH]c1c(C)cc(F)c(C#N)c21` (centres unmarked) [Example 10, (5-cyano-6-fluoro-8-methyl-1-propyl-1,3,4,9-tetrahydropyrano[3,4-b]indol-1-yl)acetic acid], with 0.08 µM.
Turning to `CCC[C@@]1(CC(=O)O)OCCc2c1[nH]c1c(C)cc(F)c(C#N)c21` [Example 12, [(S)-5-cyano-6-fluoro-8-methyl-1-propyl-1,3,4,9-tetrahydropyrano[3,4-b]indol-1-yl]acetic acid], the IC50 turned out to be 0.6 µM.
For the molecule `CCC1(CC(=O)O)OCCc2c1[nH]c1cccc(Cl)c21` (centres unmarked) [Example 13, (5-Chloro-1-ethyl-1,3,4,9-tetrahydropyrano[3,4-b]indol-1-yl)acetic acid], the inhibition at 20 µM worked out at 23% and the IC50 is greater than 20 µM.
On to `CCCC1(CC(=O)O)OCCc2c1[nH]c1cccc(Cl)c21` (centres unmarked) [Example 14, (5-Chloro-1-propyl-1,3,4,9-tetrahydropyrano[3,4-b]indol-1-yl)acetic acid], for which the inhibition at 20 µM was determined as 75% and the IC50 came to 11 µM.
On to `CC(C)C1(CC(=O)O)OCCc2c1[nH]c1cccc(Cl)c21` (centres unmarked) [Example 15, (5-chloro-1-isopropyl-1,3,4,9-tetrahydropyrano[3,4-b]indol-1-yl)acetic acid], for which the inhibition at 20 µM stood at 7% and the IC50 was greater than 20 µM.
On to `C/C=C/CCC1(CC(=O)O)OCCc2c1[nH]c1cccc(Cl)c21` (centres unmarked) [Example 16, {5-chloro-1-[(3E)-pent-3-enyl]-1,3,4,9-tetrahydropyrano[3,4-b]indol-1-yl}acetic acid], for which the inhibition at 20 µM is less than 5% and the IC50 is greater than 20 µM.
For `O=C(O)CC1(c2ccccc2)OCCc2c1[nH]c1cccc(Cl)c21` (centres unmarked) [Example 17, (5-chloro-1-phenyl-1,3,4,9-tetrahydropyrano[3,4-b]indol-1-yl)acetic acid], the inhibition at 20 µM was less than 5% and the IC50 was greater than 20 µM.
For the molecule `O=C(O)CC1(c2ccc([N+](=O)[O-])cc2)OCCc2c1[nH]c1cccc(Cl)c21` (centres unmarked) [Example 18, [5-chloro-1-(4-nitrophenyl)-1,3,4,9-tetrahydropyrano[3,4-b]indol-1-yl]acetic acid], the inhibition at 20 µM is less than 5% and the IC50 was greater than 20 µM.
With `O=C(O)CC1(c2cccc([N+](=O)[O-])c2)OCCc2c1[nH]c1cccc(Cl)c21` (centres unmarked) [Example 19, [5-chloro-1-(3-nitrophenyl)-1,3,4,9-tetrahydropyrano[3,4-b]indol-1-yl]acetic acid], the inhibition at 20 µM was found to be 6% and the IC50 was greater than 20 µM.
The matching figures for `O=C(O)CC1(c2ccccc2F)OCCc2c1[nH]c1cccc(Cl)c21` (centres unmarked) [Example 20, [5-chloro-1-(2-fluorophenyl)-1,3,4,9-tetrahydropyrano[3,4-b]indol-1-yl]acetic acid]: 21% and greater than 20 µM.
Consider `CCC1(CC(=O)O)OCCc2c1[nH]c1cccc(Br)c21` (centres unmarked) [Example 21, (5-bromo-1-ethyl-1,3,4,9-tetrahydro-pyrano[3,4-b]indol-1-yl)acetic acid], for which the inhibition at 20 µM turned out to be 58% and the concentration for half-maximal inhibition (IC50) was greater than 20 µM.
With `CCCC1(CC(=O)O)OCCc2c1[nH]c1cccc(Br)c21` (centres unmarked) [Example 22, (5-bromo-1-propyl-1,3,4,9-tetrahydropyrano[3,4-b]indol-1-yl)acetic acid], the inhibition at 20 µM worked out at 70%.
As to `CC(C)C1(CC(=O)O)OCCc2c1[nH]c1cccc(Br)c21` (centres unmarked) [Example 23, (5-bromo-1-isopropyl-1,3,4,9-tetrahydropyrano[3,4-b]indol-1-yl)acetic acid], the inhibition at 20 µM is 12% and the IC50 is greater than 20 µM.
For `C/C=C/CCC1(CC(=O)O)OCCc2c1[nH]c1cccc(Br)c21` (centres unmarked) [Example 24, {5-bromo-1-[(3E)-pent-3-enyl]-1,3,4,9-tetrahydropyrano[3,4-b]indol-1-yl}acetic acid], the inhibition at 20 µM is less than 5% and the IC50 is greater than 20 µM.
In the case of `O=C(O)CC1(c2ccoc2)OCCc2c1[nH]c1cccc(Br)c21` (centres unmarked) [Example 25, [5-bromo-1-(3-furyl)-1,3,4,9-tetrahydropyrano[3,4-b]indol-1-yl]acetic acid], the inhibition at 20 µM was found to be 33% and the IC50 is greater than 20 µM.
With `O=C(O)CC1(c2ccccc2)OCCc2c1[nH]c1cccc(Br)c21` (centres unmarked) [Example 26, (5-bromo-1-phenyl-1,3,4,9-tetrahydropyrano[3,4-b]indol-1-yl)acetic acid], the inhibition at 20 µM is less than 5% and the IC50 is greater than 20 µM.
As to `COc1cc(C2(CC(=O)O)OCCc3c2[nH]c2cccc(Br)c32)cc(OC)c1OC` (centres unmarked) [Example 27, [5-bromo-1-(3,4,5-trimethoxyphenyl)-1,3,4,9-tetrahydropyrano[3,4-b]indol-1-yl]acetic acid], the inhibition at 20 µM is 3% and the IC50 is greater than 20 µM.
As to `O=C(O)CC1(c2ccc([N+](=O)[O-])cc2)OCCc2c1[nH]c1cccc(Br)c21` (centres unmarked) [Example 28, [5-bromo-1-(4-nitrophenyl)-1,3,4,9-tetrahydropyrano[3,4-b]indol-1-yl]acetic acid], the inhibition at 20 µM was less than 5% and the IC50 is greater than 20 µM.
The matching figures for `O=C(O)CC1(c2cccc([N+](=O)[O-])c2)OCCc2c1[nH]c1cccc(Br)c21` (centres unmarked) [Example 29, [5-bromo-1-(3-nitrophenyl)-1,3,4,9-tetrahydropyrano[3,4-b]indol-1-yl]acetic acid]: less than 5% and greater than 20 µM.
